Laboratory results: US20110044991A1, “METHODS AND COMPOSITIONS FOR TREATING LYMPHOMA AND MYELOMA” (IRM LLC, priority 2006, published 2011)
Read-outs that look alike come from different tables or passages of the source.

What was measured:
Cdkn2a−/− lymphoma cells = assay: Luciferase assay of luciferased lymphoma cells on stromal layer; format: cell-based, mouse; conditions: for Response rate to cyclopamine treatment (responsive/tested cultures) / Response rate to cyclopamine treatment: Ink4a/Arf-/- lymphomas; for Response rate to cyclopamine treatment: >80% growth inhibition at 5 μM
Method: (§1) For Shh pathway inhibition on stroma, 6200 stroma cells were seeded per 96-well. After 24 hours 20,000 luciferased lymphoma cells were seeded on the stroma cells and 2 hours later compound or DMSO was added. Luciferase assay was performed with Bright-glow reagent as described. To generate cells overexpressing Hh pathway members, lymphoma cells were infected with Smo, Smo 535, Smo 562, Gli1 and Fused-pMSCV IRES GFP constructs and then sorted for GFP positive cells.
In order to investigate whether the Hh signalling pathway does indeed contribute to the survival and proliferation of lymphoma cells growing on an intact stromal layer, lymphoma cells were luciferased using a retrovirus expressing a puromycin/Luc fusion cassette. 2×10E4 lymphoma cells constitutively expressing luciferase were added to each 96-well containing a stromal layer (not expressing luciferase) isolated from Cdkn2a^−/− mice. A total of 34 individual Eμ-Myc-lymphomas and 8 Cdkn2a-lymphomas were tested. A luciferase assay was performed as a readout for cell viability and proliferation and results were also documented by light microscopy.

lymphoma cells = assay: Cell cycle distribution of gated viable cells; format: cell-based, mouse; conditions: after 12 hours of treatment; 20.4% before
Gli1, Ptch1, Bcl2 = assay: Hh target expression in lymphoma cells (Western blot, quantitative RT-PCR); format: cell-based, mouse
Method: Western immunoblot: Whole-cell lysates were sonicated in 2% SDS/50 mM TrisHCl, pH8. Western blot using rabbit or goat polyclonal antibodies for Shh-N, c-Myc, Smo, Gli1 were performed as described. Shh-N, c-Myc and Smo antibodies were obtained from Santa Cruz Biotechnology, Gli1 (ab7523) antibody was obtained from Abcam Inc. (Cambridge, Mass.).
RT-PCR: Total cellular RNA was treated with DNase, reverse transcribed, amplified for 33 cycles at an annealing temperature of 55° C. Primers used were obtained from Integrated DNA Technologies (Coralville, Iowa).
To further substantiate a role for Hh/SMO signalling in Eμ-Myc and CDKN2a^−/− positive lymphoma we determined the expression of Hh pathway members in the lymphoma cells itself. Transcripts of all essential Hh pathway members (Smo, Ptc1, Ptc2, Gli1, and Gli2) were expressed in B-cell lymphomas, plasmoblastomas and plasmacytomas (FIG. 2E). Gli1 and Ptch represent direct target genes of the Hh pathway itself and are regulated at the transcriptional level by Hh signalling. […] Ptch1 transcript levels were decreased 10-fold within 18 h of pathway inhibition (FIG. 2G). Other target genes of the Hh pathway like Hip and Cyclin D1 could also be detected in the majority of lymphoma cells. […] All 3 Gli proteins have evolved specialized functions with distinct temporal and tissue-specific expression patterns. Unlike Gli1, which represents a direct transcriptional Hh-target gene, Gli2 and also Gli3 are considered latent transcriptional regulators activated by Hh signalling through modification of their N-terminal repressor domain.

[1] = test system: Myc-Ly6 cells overexpressing Smo, Smo535, Smo562, Gli1 or Fused; assay: Luciferase assay with lymphoma cells overexpressing Hh pathway members on stromal layer; format: cell-based, mouse; conditions: for IC50: Mus musculus, 48 h
Method: as §1

[2] = test system: Myc lymphoma cells (p53−/−, Cdkn2a−/−, Bcl2+, Bax−/−, Caspase3−/−); conditions: for apoptosis: 5 μM, 48 hours
Description: Genetically altered mice and culture of primary cells: Eμ-Myc mice (Adams et al., Nature 318: 533-53824, 1985), Cdkna^−/− mice (Serrano et al., Cell. 85:27-3725, 1996), Bax^−/− mice (The Jackson Laboratory, Bar Harbor, Me.), Caspase3^−/− mice (The Jackson laboratory), p53^−/− mice (The Jackson Laboratory) and Bcl2 tg mice (The Jackson laboratory) were maintained and genotyped as described. Eμ-Myc mice and Cdkn2a−/− mice were monitored for signs of disease including development of visible lymphomas or weight loss from more than 15%. Mice with terminal disease were sacrificed, bone marrow, spleen and lymph nodes were extracted and lymphoma cells were propagated under Witlock/Witte culture conditions. For maintained growth cells were transferred on bone marrow stroma from Cdkn2a−/− mice after 2-3 weeks of culture. For generation of lymphomas with defined genetic background, bone marrow from p53−/− mice, Caspase3−/− mice, Bax−/− mice, Cdkn2a−/− mice and Bcl2 tg mice was extracted and pMSCV c-Myc IRES GFP was overexpressed. Propagation of transformed lymphocytes was performed under Witlick/Witte culture conditions and lymphomas were maintained on stroma from Cdkn2a−/− mice.
To better understand which specific pathways are involved in the regulation of growth and survival through Hh signalling in lymphoma cells, lymphoma cell cultures were generated in multiple different genetic backgrounds in order to modify either apoptotic or failsafe pathways. Bone marrow extracted from wt C57BL/6, Bcl2 transgenic, Bax^−/− Caspase-3^−/−, CDKN2a^−/− and p53^−/− mice was infected with pMSCV-Myc-GFP and transformed lymphocyte cultures were obtained using Whitlock/Witte culture conditions in the absence of IL-7. […] Similar to cultures established from primary lymphomas, lymphocytes transformed by retroviral transduction were transferred to bone marrow stroma of CDKN2a^−/− mice for longer term culture.

Eμ-Myc lymphoma cells = assay: Luciferased lymphoma cells injected into C57BL/6 mice, treatment from day 2; format: in vivo, mouse
Method: (§2) D: injection of 1 Mio luciferased lymphoma cells in C57B16 mice.
(§3) Mouse experiments: Black6 mice between 6 and 8 weeks of age were injected with 1 Mio luciferased lymphoma cells. […] Bioluminescence was measured with injection of […].
In order to verify the importance of the Hh pathway for lymphoma growth and expansion in mice, we injected 1e6 lymphoma cells expressing luciferase into syngeneic C57BL/6 mice. […] Luciferase levels were measured by bioluminescence imaging twice a week.

lymphoma cells (Ly9) = test system: lymphoma cells (Ly9)
Method: as §2
Immunohistochemistry: Single colour DAB-immunoperoxidase staining was performed as described. Antibodies were obtained from Santa Cruz Biotechnologies (for Shh antibody, N-19), NeoMarkers (for Ki67 antibody) and Promega (for PARP antibody).
as §3
We next wished to determine the importance of Hh signalling in established lymphomas.

[3] = 50 mg/kg twice a day for 3 days, vs control group

## CC1=C2C[C@H]3[C@@H](CC=C4C[C@@H](O)CC[C@@]43C)[C@@H]2CC[C@]12O[C@@H]1C[C@H](C)CN[C@H]1[C@H]2C [cyclopamine]
Cdkn2a−/− lymphoma cells; plasmacytoma
  Response rate to cyclopamine treatment (responsive/tested cultures): (2/4)
  Response rate to cyclopamine treatment: 50%
Cdkn2a−/− lymphoma cells; plasmoblastoma
  Response rate to cyclopamine treatment (responsive/tested cultures): (2/4)
  Response rate to cyclopamine treatment: 50%
Cdkn2a−/− lymphoma cells; all lymphomas from CDKN2a−/− mice, sensitivity = greater than 80% growth inhibition at 5 μM
  lymphomas sensitive to Hh pathway inhibition: 50%
Lymphoma cells
  G2/M phase of remaining viable cells: 13.3%
Gli1, Ptch1, Bcl2; after cyclopamine treatment, Western blot
  Bcl2 in Myc-lymphomas: downregulated
Gli1, Ptch1, Bcl2; within 18 h of pathway inhibition, 5 μM
  decrease of Ptch1 transcript levels: 10 fold
Gli1, Ptch1, Bcl2; within 24 hours, compared to actin control
  Gli1 protein in lymphoma cells: reduction of detectable Gli1 protein
[1]; cyclopamine sensitive lymphoma cell lines without overexpression
  IC50: 1 µM
[1]; overexpression of Fused
  IC50: > 10 µM
  apoptosis induction by cyclopamine: nearly complete inhibition of apoptosis induction
[1]; overexpression of Gli1
  IC50: > 10 µM
  response of Myc-Ly6 to cyclopamine treatment: partial resistance
[1]; overexpression of Smo A562G
  IC50: 4.5 µM
[1]; overexpression of Smo W535L
  IC50: 3.5 µM
[1]; overexpression of Smo wt
  IC50: 3 µM
[2]; Myc/Bax−/− cells
  cyclopamine induced apoptosis: partial resistance
[2]; Myc/Caspase 3−/− cells
  cyclopamine induced apoptosis: partial resistance
[2]; Myc/Cdkn2a−/− lymphoma cells
  apoptosis: induced apoptosis
[2]; Myc/p53−/− lymphoma cells
  apoptosis: induced apoptosis
Eμ-Myc lymphoma cells; 25 mg/kg/day s.c., max 21 days, control group 16 days
  median survival: 20 days
Eμ-Myc lymphoma cells; 50 and 100 mg/kg/day s.c. from day 2, twelve days post-injection
  signs of disease (bioluminescence imaging): only minimal signs of disease
Eμ-Myc lymphoma cells; lymphoma with in vitro resistance and overexpression of Gli3, 100 mg/kg/day
  response (survival curves): only minimal response
Eμ-Myc lymphoma cells; two additional lymphoma cells (1 plasmoblastoma and 1 B-cell lymphoma), similar conditions
  response in vivo: responsive in vivo
Lymphoma cells (Ly9); [3]
  infiltration of the spleen: markedly decreased
  lymphoma mass in lymph nodes and other organs: reduced lymphoma mass
Lymphoma cells (Ly9); after 3 days of treatment
  PARP staining of spleen: apoptosis induction
  histopathology of spleens (H&E): reduction of lymphoma cells in the spleen
Lymphoma cells (Ly9); after 3 days of treatment, compared to vehicle group
  Ki67 staining of spleen: strong decrease of high proliferative cells
Lymphoma cells (Ly9); three-day treatment, compared to vehicle control group
  decrease of spleen weight: ~50%
